According to article PMC9065348 (Frontiers in Pharmacology, 2022):
Like-named read-outs stand apart in the source and are kept apart here. Blank lines part the entries; values can stand above or below the compound they belong to.

What was measured:
[1] = parameters: method as in Sica et al., 2005; Burnier and Wuerzner, 2011; conditions: ref Sica et al., 2005; Burnier and Wuerzner, 2011; cited from earlier work
[2] = Pharmacokinetics of LOS and EXP3174 in non-hypertensive Wistar rats (LC-MS); format: in vivo; conditions: rat, serum, po; Wistar rats without L-NAME; LOS 10 mg/kg/d ig alone (BLANK + LOS group)
Description: All groups were treated for 2 weeks and the blood collection time and methods of serum management were the same as those mentioned above. The LOS and EXP3174 in rat serum were quantitatively determined by a validated LC-MS method. The LC-MS system contained a Q/Exactive Quadrupole/Electrostatic Field Track Well High Resolution Mass Spectrometer (Thermo Fisher Scientific, Waltham, MA, United States) and a Dionex Ultimate 3,000 High-pressure liquid chromatography (Dionex, Subsidiary, CA, United States) system equipped with an electro-spray ionization source. […] The mobile phase included 0.1% formic acid aqueous solution (C) and acetonitrile (D) at a flow rate of 0.3 ml/min. The proportion of phase B in the mobile phase was adjusted from 40 to 5% at 0–2 min, 5% at 2–4 min, 40% at 4–5 min. The parameters of mass spectrometry for each analyte were shown in Supplementary Figure S1 . The collected data were analyzed through Xcalibur 4.1 software. The serum drug concentration data in each sample were obtained by calculation. The pharmacokinetic parameters corresponding to each rat were calculated using the “non-compartmental model” of the “PK solution 2.0TM (Summit Research Services, United States)” pharmacokinetic software. The half-life (t 1/2 ), peak drug concentration (C max), peak time (T max), the area under the plasma concentration-time curve (AUC) from time zero to the time of the last measurable plasma concentration (AUC 0-t ), AUC from time zero to infinity (AUC 0-∞ ), mean residence time (MRT), clearance (CL), apparent volume of distribution (V d ), and relative bioavailability (Frel) were calculated.

[3] = Pharmacokinetics of LOS and EXP3174 in the hypertension rat model (LC-MS); format: in vivo, Wistar rats; conditions: hypertensive rats (L-NAME); for AUC(0-inf) / AUC(0-t) / Cmax / MRT / Tmax / half-life: Wistar, rat, plasma, po, 10 mg/kg/day
Description: All samples were centrifuged at 3,000 rpm for 10 min, and the upper plasma was collected for Liquid Chromatography Mass Spectrometry (LC-MS) analysis. The LOS and EXP3174 in rat serum were quantitatively determined by a validated LC-MS method. The LC-MS system contained a Q/Exactive Quadrupole/Electrostatic Field Track Well High Resolution Mass Spectrometer (Thermo Fisher Scientific, Waltham, MA, United States) and a Dionex Ultimate 3,000 High-pressure liquid chromatography (Dionex, Subsidiary, CA, United States) system equipped with an electro-spray ionization source. […] The mobile phase included 0.1% formic acid aqueous solution (C) and acetonitrile (D) at a flow rate of 0.3 ml/min. The proportion of phase B in the mobile phase was adjusted from 40 to 5% at 0-2 min, 5% at 2-4 min, 40% at 4-5 min. The parameters of mass spectrometry for each analyte were shown in Supplementary Figure S1 . The collected data were analyzed through Xcalibur 4.1 software. The serum drug concentration data in each sample were obtained by calculation. The pharmacokinetic parameters corresponding to each rat were calculated using the “non-compartmental model” of the “PK solution 2.0TM (Summit Research Services, United States)” pharmacokinetic software. The half-life (t 1/2 ), peak drug concentration (C max), peak time (T max), the area under the plasma concentration-time curve (AUC) from time zero to the time of the last measurable plasma concentration (AUC 0-t ), AUC from time zero to infinity (AUC 0-∞ ), mean residence time (MRT), clearance (CL), apparent volume of distribution (V d ), and relative bioavailability (Frel) were calculated.

CYP3A4 [4] = test system: CYP3A4; parameters: method as in Li et al. (2012); conditions: Rat hepatic microsomes; ref Li et al. (2012); cited from earlier work
CYP3A4 [5] = biological target: CYP3A4 (Homo sapiens, UniProt P08684); parameters: method as in Wan et al. (2010); conditions: HepG2; ref Wan et al. (2010); cited from earlier work
P-gp [6] = conditions: Sprague-Dawley rats; ref Qin et al. (2013); cited from earlier work
CYP3A4 [7] = conditions: Sprague-Dawley rats; ref Qin et al. (2013); cited from earlier work
P-gp [8] = test system: P-gp; parameters: method as in Wan et al. (2010); conditions: HepG2; ref Wan et al. (2010); cited from earlier work
[9] = LOS 10 mg/kg/d ig + SMI 2 ml/kg/d tail vein (SMI-L+LOS group)
[10] = LOS 10 mg/kg/d ig + SMI 4 ml/kg/d tail vein (SMI-M+LOS group)
[11] = LOS 10 mg/kg/d ig + SMI 6 ml/kg/d tail vein (SMI-H+LOS group)
[12] = LOS 10 mg/kg/d ig alone (LOS group)

Sequence of CYP3A4 (Homo sapiens, UniProt P08684) (P08684 whole entry): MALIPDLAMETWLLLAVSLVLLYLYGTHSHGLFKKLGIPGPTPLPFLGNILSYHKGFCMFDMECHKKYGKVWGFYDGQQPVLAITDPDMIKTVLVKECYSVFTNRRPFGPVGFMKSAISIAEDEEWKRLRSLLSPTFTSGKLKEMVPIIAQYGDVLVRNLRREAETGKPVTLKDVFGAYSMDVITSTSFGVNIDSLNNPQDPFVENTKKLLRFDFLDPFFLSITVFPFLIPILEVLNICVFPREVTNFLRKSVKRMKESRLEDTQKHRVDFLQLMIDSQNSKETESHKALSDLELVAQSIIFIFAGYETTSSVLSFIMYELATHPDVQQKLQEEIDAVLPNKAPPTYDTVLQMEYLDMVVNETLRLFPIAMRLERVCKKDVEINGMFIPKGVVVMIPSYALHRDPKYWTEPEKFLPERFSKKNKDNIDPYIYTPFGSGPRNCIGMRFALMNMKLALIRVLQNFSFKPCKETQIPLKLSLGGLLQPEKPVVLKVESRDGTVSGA

- AUC(0-inf) [2]: 1170 ng·h/mL
- AUC(0-t) [2]: 1020 ng·h/mL
- Cmax [2]: 115 ± 12.1 ng/mL
- MRT [2]: 9.77 ± 0.26 h
- Tmax [2]: 5.33 ± 1.03 h
- half-life [2]: 6.5 ± 1.52 h
- AUC(0-inf) [3, 9]: 1280 ng·h/mL
- AUC(0-t) [3, 9]: 1180 ng·h/mL
- Cmax [3, 9]: 133 ± 42.8 ng/mL
- MRT [3, 9]: 9.5 ± 1.8 h
- Tmax [3, 9]: 4.8 ± 1.1 h
- half-life [3, 9]: 6.67 ± 1.34 h
- AUC(0-inf) [3, 10]: 1500 ng·h/mL
- AUC(0-t) [3, 10]: 1380 ng·h/mL
- Cmax [3, 10]: 123 ± 44.6 ng/mL
- MRT [3, 10]: 11.4 ± 1.62 h
- Tmax [3, 10]: 5.33 ± 1.03 h
- half-life [3, 10]: 6.59 ± 1.44 h
- AUC(0-inf) [3, 11]: 1380 ng·h/mL
- Cmax [3, 11]: 81.2 ± 8.14 ng/mL
- MRT [3, 11]: 13.3 ± 2.66 h
- Tmax [3, 11]: 6 ± 1.26 h
- half-life [3, 11]: 7.31 ± 1.62 h
- AUC(0-inf) [3, 12]: 1300 ng·h/mL
- AUC(0-t) [3, 12]: 1160 ng·h/mL
- Cmax [3, 12]: 119 ± 36.4 ng/mL
- MRT [3, 12]: 11.2 ± 2.34 h
- Tmax [3, 12]: 4.33 ± 0.82 h
- half-life [3, 12]: 6.76 ± 1.45 h
- CL [3, 9]: 23,408.16 ± 11,602.26 ml/h/kg
- Vd [3, 9]: 226,676.52 ± 129,635.61 ml/kg
- CL [3, 10]: 17,618.36 ± 4346.02 ml/h/kg
- Vd [3, 10]: 159,469.35 ± 65,037.84 ml/kg
- CL [3, 11]: 18,577.68 ± 3,249.85 ml/h/kg
- Vd [3, 11]: 188,473.60 ± 36,260.16 ml/kg
- CL [3, 12]: 19,842.49 ± 3,602.55 ml/h/kg
- Vd [3, 12]: 175,713.60 ± 57,295.84 ml/kg
Structure (SMILES): CCCCc1nc(Cl)c(C(=O)O)n1Cc1ccc(-c2ccccc2-c2nn[nH]n2)cc1 [EXP3174, losartan carboxylic acid]
- antihypertensive potency relative to losartan [1]: 10–40 times

Structure (SMILES): COc1cc2c(c(OC)c1OC)-c1c(cc(OC)c(OC)c1OC)C[C@H](C)[C@H](C)C2 [Schisandrin A]
- Effects on CYP3A4 (CYP3A4 [4]): Inhibition

Structure (SMILES): COc1cc2c(c(OC)c1OC)-c1c(cc(OC)c(OC)c1OC)C[C@](C)(O)[C@@H](C)C2 [schisandrol A]
- Effects on CYP3A4 (CYP3A4 [5]): Inhibition
- Effects on P-Gp (P-gp [6]): Inhibition
- Effects on CYP3A4 (CYP3A4 [7]): Inhibition
- Effects on P-Gp (P-gp [8]): Inhibition
